These results are taken from patent US10508109B2 (priority 2015, dated 2019).

One experiment addresses SUV39H2 (Homo sapiens (Human), UniProt Q9H5I1). The settings on record: read-out: IC50 (μM) Suv 39H2 assay.
Another experiment relates to A549. In words: Cell-based assay, anti-proliferative activity (Cell Counting Kit-8, 72 hours). The settings on record: Homo sapiens, read-out: IC50 (μM) A549. The gist of the method:
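After compound exposure of cells in 96-well plates, growth was measured colorimetrically and converted into IC50 values.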
(In general: Formazan colour is commonly taken as a measure of viable cells.)

In a further experiment the test system is HCT-116. Described as above. The note with it: Homo sapiens, read-out: IC50 (μM) HCT-116. The procedure, abridged:
(§1)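 CCK-8 viability read 72 h after compound exposure over an 8-point series from 1.5625 to 100 micro-M plus zero. Seeding density 2,000–3,000 cells/well; IC50 from the dilution series.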

The next experiment concerns HFL1. The description is as above. The settings on record: Homo sapiens, read-out: IC50 (μM) HFL1. The gist of the method: as §1
The test system of another experiment is CCD-18Co. The description is as above. The note with it: Homo sapiens, read-out: IC50 (μM) CCD-18Co. The procedure, abridged: as §1
The mark [1] stands for this setting: A549 cells, Cell Counting Kit-8, 72 hours.
Setting [2] is: HCT-116 cells, Cell Counting Kit-8, 72 hours.
Setting [3] is: HFL1 cells, Cell Counting Kit-8, 72 hours.
Where [4] appears, read: CCD-18Co cells, Cell Counting Kit-8, 72 hours.

Counter-ions that a name gives are not always drawn. Like-named read-outs stand apart in the source and are kept apart here.

Sequence of SUV39H2 (Q9H5I1 whole entry): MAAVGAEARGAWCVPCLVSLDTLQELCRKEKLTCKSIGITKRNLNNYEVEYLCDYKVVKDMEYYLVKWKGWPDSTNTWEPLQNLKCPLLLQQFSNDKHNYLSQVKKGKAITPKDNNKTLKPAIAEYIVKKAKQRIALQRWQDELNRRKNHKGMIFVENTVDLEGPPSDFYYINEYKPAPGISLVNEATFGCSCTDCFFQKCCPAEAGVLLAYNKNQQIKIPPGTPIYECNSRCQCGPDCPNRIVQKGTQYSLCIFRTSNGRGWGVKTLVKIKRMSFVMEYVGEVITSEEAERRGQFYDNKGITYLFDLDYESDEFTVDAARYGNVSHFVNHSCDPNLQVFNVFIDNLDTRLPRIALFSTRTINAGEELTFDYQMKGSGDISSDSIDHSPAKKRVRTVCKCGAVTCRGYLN

A word on the IC50: it is the concentration at which inhibition is half-maximal. Take `COc1cc(OC)c(-c2cn3ccc(N4CCC(CN)CC4)cc3n2)cc1Cl` [Example 16, (1-(2-(5-Chloro-2,4-dimethoxyphenyl)imidazo[1,2-a]pyridin-7-yl)piperidin-4-yl)-methanamine hydrochloride]: the IC50 on SUV39H2 was 0.0122 µM; in the experiment with A549 (A549, 72 h), 8.8 µM; in the experiment on HCT-116 (HCT-116, 72 h), 8.7 µM; in the experiment on HFL1 (HFL1, 72 h), 11 µM; in the experiment with CCD-18Co (CCD-18Co, 72 h), 14 µM.

Take `COc1cc(OC)c(-c2cn3ccc(N)nc3n2)cc1Cl` [Example 8, 2-(5-chloro-2,4-dimethoxyphenyl)imidazo[1,2-a]pyrimidin-7-amine]: the IC50 on SUV39H2 (enzyme assay) was determined as 0.0182 µM; in the experiment with A549 (setting [1]), 17 µM; in the experiment with HCT-116 (setting [2]), 16 µM; with HFL1 (setting [3]), 21 µM; in the experiment with CCD-18Co (setting [4]), 19 µM.

As to `COc1cc(OC)c(-c2cn3ccc(N4CCC(NC(=O)OC(C)(C)C)CC4)nc3n2)cc1Cl` [Example 36, tert-butyl (1-(2-(5-chloro-2,4-dimethoxyphenyl)imidazo[1,2-a]pyrimidin-7-yl)piperidin-4-yl)carbamate], the IC50 on SUV39H2 (enzyme assay) was 0.0552 µM; with A549 (setting [1]), 5.6 µM; in the experiment on HCT-116 (setting [2]), 4.1 µM; with HFL1 (setting [3]), 3.2 µM; in the experiment on CCD-18Co (setting [4]), 3.8 µM.

For `COc1cc(OC)c(-c2cn3cc(C4=CCNCC4)c(N4CCOCC4)cc3n2)cc1Cl` [Example 101, 4-(2-(5-chloro-2,4-dimethoxyphenyl)-6-(1,2,3,6-tetrahydropyridin-4-yl)imidazo[1,2-a]pyridin-7-yl)morpholine], the IC50 on SUV39H2 (enzyme assay) was 0.0105 µM; in the experiment with A549 (setting [1]) it was 8.3 µM; in the experiment with HCT-116 (setting [2]), 8.6 µM; with HFL1 (setting [3]) it was 7.5 µM; in the experiment with CCD-18Co (setting [4]), 6.6 µM.

Take `COc1cc(OC)c(-c2cn3ccc(N4CCN(CCC#N)CC4)cc3n2)cc1Cl` [Example 108, 3-(4-(2-(5-chloro-2,4-dimethoxyphenyl)imidazo[1,2-a]pyridin-7-yl)piperazin-1-yl)propanenitrile]: the IC50 at SUV39H2 (enzyme assay) is 0.0142 µM; in the experiment on A549 (setting [1]), 6.3 µM; in the experiment on HCT-116 (setting [2]), 10 µM; with HFL1 (setting [3]) it was 3 µM; in the experiment with CCD-18Co (setting [4]), 5.9 µM.

`COc1cc(OC)c(-c2cn3ccc(N4CCC(N)C4)nc3n2)cc1Br` (centres unmarked) [Example 19, hydrochloride]: the IC50 on SUV39H2 came to 0.0292 µM; in the experiment with A549 (A549, 72 h) it was 11 µM; in the experiment with HCT-116 (HCT-116, 72 h), 7.9 µM; in the experiment with HFL1 (HFL1, 72 h) it was 4.2 µM; with CCD-18Co (CCD-18Co, 72 h), 16 µM.

Turning to `COc1cc(OC)c(-c2cn3ccc(NCCNC(C)=O)cc3n2)cc1Cl` [Example 77, N-(2-((2-(5-chloro-2,4-dimethoxyphenyl)imidazo[1,2-a]pyridin-7-yl)amino)ethyl)acetamide], the IC50 is 0.0101 µM on SUV39H2 (enzyme assay); 30 µM with A549 (setting [1]); 21 µM with HCT-116 (setting [2]); 15 µM in the experiment on HFL1 (setting [3]); 31 µM in the experiment with CCD-18Co (setting [4]).

With `COCCN1CCN(c2ccn3cc(-c4cc(Cl)c(OC)cc4OC)nc3c2)CC1` [Example 105, 2-(5-chloro-2,4-dimethoxyphenyl)-7-(4-(2-methoxyethyl)piperazin-1-yl)imidazo[1,2-a]pyridine], the half-maximal inhibitory concentration (IC50) is 0.0111 µM at SUV39H2 (enzyme assay); 7.2 µM in the experiment with A549 (setting [1]); 7 µM in the experiment with HCT-116 (setting [2]); 8.3 µM with HFL1 (setting [3]); 8.1 µM in the experiment with CCD-18Co (setting [4]).

Consider `COc1cc(OC)c(-c2cn3ccc(N4CCC(CCN)CC4)nc3n2)cc1Cl` [Example 67], for which the IC50 is 0.0216 µM on SUV39H2 (enzyme assay); 12 µM with A549 (setting [1]); 13 µM with HCT-116 (setting [2]); 9.6 µM in the experiment with HFL1 (setting [3]); 13 µM in the experiment on CCD-18Co (setting [4]).

For `COc1cc(OC)c(-c2cn3ccc(C4=CCC5(CC4)OCCO5)cc3n2)cc1Cl` [Example 117, 2-(5-chloro-2,4-dimethoxyphenyl)-7-(1,4-dioxaspiro[4.5]dec-7-en-8-yl)-imidazo[1,2-a]pyridine], the IC50 on SUV39H2 (enzyme assay) was determined as 0.0633 µM; with A549 (setting [1]), 3.5 µM; in the experiment with HCT-116 (setting [2]), 3 µM; with HFL1 (setting [3]), 5.2 µM; in the experiment with CCD-18Co (setting [4]), 7.7 µM.

Turning to `COc1cc(OC)c(-c2cn3ccc(N4CCN(C)CC4)cc3n2)cc1Cl` [Example 106, 2-(5-chloro-2,4-dimethoxyphenyl)-7-(4-methylpiperazin-1-yl)imidazo[1,2-a]pyridine], the half-inhibitory concentration (IC50) on SUV39H2 (enzyme assay) worked out at 0.0167 µM; in the experiment on A549 (setting [1]) it was 6.3 µM; with HCT-116 (setting [2]), 6.8 µM; with HFL1 (setting [3]), 3.9 µM; with CCD-18Co (setting [4]) it was 6.8 µM.

For the compound `COc1cc(OC)c(-c2cn3ccc(C4=CCN(CC#N)CC4)cc3n2)cc1Cl` [Example 111, 2-(4-(2-(5-chloro-2,4-dimethoxyphenyl)imidazo[1,2-a]pyridin-7-yl)-5,6-dihydropyridin-1(2H)-yl)acetonitrile], the IC50 on SUV39H2 (enzyme assay) stood at 0.0614 µM; in the experiment with A549 (setting [1]), 3.3 µM; in the experiment with HCT-116 (setting [2]), 3.5 µM; in the experiment on HFL1 (setting [3]) it was 1.9 µM; in the experiment on CCD-18Co (setting [4]), 4.8 µM.

Regarding `COc1cc(OC)c(-c2cn3ccc(N4CCCCC4)cc3n2)cc1Cl` [Example 25, 2-(5-chloro-2,4-dimethoxyphenyl)-7-(piperidin-1-yl)imidazo)[1,2-a]pyridine hydrobromide], the IC50 at SUV39H2 (enzyme assay) turned out to be 0.0122 µM; in the experiment on A549 (setting [1]) it was 3 µM; with HCT-116 (setting [2]) it was 2 µM; in the experiment on HFL1 (setting [3]), 1.4 µM; in the experiment on CCD-18Co (setting [4]) it was 2.3 µM.

For `COc1cc(OC)c(-c2cn3ccc(N4CCOCC4)nc3n2)cc1Cl` [Example 79, 4-(2-(5-chloro-2,4-dimethoxyphenyl)imidazo[1,2-a]pyrimidin-7-yl)-morpholine hydrobromide], the IC50 on SUV39H2 (enzyme assay) was found to be 0.0344 µM; in the experiment on A549 (setting [1]), 21 µM; with HCT-116 (setting [2]) it was 21 µM; in the experiment with HFL1 (setting [3]) it was 15 µM; in the experiment with CCD-18Co (setting [4]), 22 µM.

For the compound `COc1cc(OC)c(-c2cn3ccc(C4=CCOCC4)cc3n2)cc1Cl` [Example 118, 2-(5-chloro-2,4-dimethoxyphenyl)-7-(3,6-dihydro-2H-pyran-4-yl)-imidazo[1,2-a]pyridine], the IC50 was 0.0661 µM on SUV39H2 (enzyme assay); 6.9 µM with A549 (setting [1]); 9.1 µM in the experiment with HCT-116 (setting [2]); 6.9 µM in the experiment on HFL1 (setting [3]); 11 µM with CCD-18Co (setting [4]).

For `COc1cc(OC)c(-c2cn3ccc(N4CCC(NC(=O)OC(C)(C)C)CC4)cc3n2)cc1Cl` [Example 14, tert-butyl {1-[2-(5-chloro-2,4-dimethoxyphenyl)imidazo[1,2-a]pyridin-7-yl]piperidin-4-yl}carbamate], the IC50 on SUV39H2 (enzyme assay) is 0.0341 µM; in the experiment with A549 (setting [1]), 2.7 µM; with HCT-116 (setting [2]) it was 2 µM; with HFL1 (setting [3]) it was 1.8 µM; with CCD-18Co (setting [4]), 1.9 µM.

As for `COc1cc(OC)c(-c2cn3ccc(N4CCOCC4)cc3n2)cc1C#N` [Example 93, 2,4-Dimethoxy-5-(7-morpholinoimidazo[1,2-a]pyridin-2-yl)benzonitrile], the IC50 was 0.0119 µM on SUV39H2 (enzyme assay); 6.4 µM in the experiment on A549 (A549, 72 h); 6.4 µM with HCT-116 (HCT-116, 72 h); 9.6 µM with HFL1 (HFL1, 72 h); 6.3 µM in the experiment on CCD-18Co (CCD-18Co, 72 h).

With `COc1cc(OC)c(-c2cn3ccc(N4CCC(N)C4)nc3n2)cc1Cl` (centres unmarked) [Example 34, 1-(2-(5-chloro-2,4-dimethoxyphenyl)imidazo[1,2-a]pyrimidin-7-yl)pyrrolidin-3-amine hydrochloride], the IC50 was found to be 0.0273 µM at SUV39H2; 12 µM with A549 (A549, 72 h); 9.6 µM with HCT-116 (HCT-116, 72 h); 4.4 µM in the experiment with HFL1 (HFL1, 72 h); 11 µM with CCD-18Co (CCD-18Co, 72 h).

For the compound `COc1cc(OC)c(-c2cn3ccc(NCCN(C)C)cc3n2)cc1Cl` [Example 83, N^1-(2-(5-chloro-2,4-dimethoxyphenyl)imidazo[1,2-a]pyridin-7-yl)-N^2,N^2-dimethylethane-1,2-diamine], the IC50 at SUV39H2 (enzyme assay) is 0.0373 µM; with A549 (A549, 72 h), 5.5 µM; in the experiment on HCT-116 (HCT-116, 72 h), 6.7 µM; with HFL1 (HFL1, 72 h), 2.2 µM; with CCD-18Co (CCD-18Co, 72 h), 7.1 µM.

Take `COc1cc(OC)c(-c2cn3ccc(N4CCC(NC(=O)OC(C)(C)C)C4)nc3n2)cc1C#N` (centres unmarked) [Example 74, tert-butyl (1-(2-(5-cyano-2,4-dimethoxyphenyl)imidazo[1,2-a]pyrimidin-7-yl)pyrrolidin-3-yl) carbamate]: the IC50 on SUV39H2 (enzyme assay) stood at 0.0303 µM; in the experiment with A549 (setting [1]), 8.5 µM; with HCT-116 (setting [2]) it was 8.1 µM; in the experiment with HFL1 (setting [3]) it was 3.9 µM; in the experiment on CCD-18Co (setting [4]) it was 6.4 µM.

On to `COc1cc(OC)c(-c2cn3ccc(C4=CCNCC4)cc3n2)cc1Cl` [Example 52, 2-(5-chloro-2,4-dimethoxyphenyl)-7-(1,2,3,6-tetrahydropyridin-4-yl)imidazo[1,2-a]pyridine], for which the IC50 on SUV39H2 (enzyme assay) was 0.0616 µM; in the experiment with A549 (setting [1]) it was 1.5 µM; in the experiment with HCT-116 (setting [2]), 1.4 µM; in the experiment on HFL1 (setting [3]) it was 1.6 µM; in the experiment on CCD-18Co (setting [4]), 1.3 µM.

As to `COC(=O)N1CC=C(c2ccn3cc(-c4cc(Cl)c(OC)cc4OC)nc3c2)CC1` [Example 102, methyl 4-[2-(5-chloro-2,4-dimethoxyphenyl)imidazo[1,2-a]pyridin-7-yl]-5,6-dihydropyridine-1(2H)-carboxylate], the IC50 at SUV39H2 (enzyme assay) was 0.0756 µM; in the experiment with A549 (setting [1]) it was 1.6 µM; in the experiment on HCT-116 (setting [2]), 1.9 µM; in the experiment with HFL1 (setting [3]) it was 2.3 µM; in the experiment on CCD-18Co (setting [4]), 2.8 µM.
